test system: tau protein; test: Tau protein in vitro degradation assay (Western blot, Tau-13 antibody); format: cell-based, human; conditions: SK-N-SH cells; 72 hours of incubation; tested at 300 nM, 100 nM, 33 nM and 11 nM; Western blot, Tau-13 antibody
Summary of the method: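 Tau degradation read by Tau-13 Western blot (detects all human tau forms) of SDS-PAGE-resolved lysates from SK-N-SH cells. Cells were plated at least 18 h before 72 h exposure to PROTACs at either 1000/300/100 nM or 300/100/33/11 nM.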

Row | SMILES | Degradation activity* (highest amount of degradation observed at any dosage; tau protein remaining)
1 | O=C1CCC(N2C(=O)c3ccc(OCCOCCOCCOCCOCCOc4ccc(-c5ccc6c(c5)[nH]c5ccncc56)cn4)cc3C2=O)C(=O)N1 (stereo not drawn) [Compound 51, 5-((14-((5-(5H-pyrido[4,3-b]indol-7-yl)pyridin-2-yl)oxy)-3,6,9,12-tetraoxatetradecyl)oxy)-2-(2,6-dioxopiperidin-3-yl)isoindoline-1,3-dione] | A (≤50% tau protein remaining after 72 hours of incubation with the test compound)
2 | O=C1CCC(N2C(=O)c3ccc(OCCCCCN4CCN(CCOCCCc5ccc(-c6ccc7c(c6)[nH]c6ccncc67)cn5)CC4)cc3C2=O)C(=O)N1 (stereo not drawn) [Compound 52, 5-((5-(4-(2-(3-(5-(5H-pyrido[4,3-b]indol-7-yl)pyridin-2-yl)propoxy)ethyl)piperazin-1-yl)pentyl)oxy)-2-(2,6-dioxopiperidin-3-yl)isoindoline-1,3-dione] | C (>80% tau protein remaining after 72 hours of incubation with the test compound)
3 | O=C1CCC(N2C(=O)c3ccc(N4CCN(CCCO[C@H]5C[C@@H](Oc6ccc(-c7ccc8c(c7)[nH]c7ccncc78)cn6)C5)CC4)cc3C2=O)C(=O)N1 (stereo partly drawn) [Compound 53, 5-(4-(3-((1s,3s)-3-((5-(5H-pyrido[4,3-b]indol-7-yl)pyridin-2-yl)oxy)cyclobutoxy)propyl)piperazin-1-yl)-2-(2,6-dioxopiperidin-3-yl)isoindoline-1,3-dione] | C (>80% tau protein remaining after 72 hours of incubation with the test compound)
4 | O=C1CCC(N2C(=O)c3ccc(OCCCCCN4CCN(CCCc5ccc(-c6ccc7c(c6)[nH]c6ccncc67)cn5)CC4)cc3C2=O)C(=O)N1 (stereo not drawn) [Compound 54, 5-((5-(4-(3-(5-(5H-pyrido[4,3-b]indol-7-yl)pyridin-2-yl)propyl)piperazin-1-yl)pentyl)oxy)-2-(2,6-dioxopiperidin-3-yl)isoindoline-1,3-dione] | C (>80% tau protein remaining after 72 hours of incubation with the test compound)
5 | O=C1CCC(N2C(=O)c3ccc(OCCCc4ccc(N5CCN(CCCc6ccc(-c7ccc8c(c7)[nH]c7ccncc78)cn6)CC5)nc4)cc3C2=O)C(=O)N1 (stereo not drawn) [Compound 55, 5-(3-(6-(4-(3-(5-(5H-pyrido[4,3-b]indol-7-yl)pyridin-2-yl)propyl)piperazin-1-yl)pyridin-3-yl)propoxy)-2-(2,6-dioxopiperidin-3-yl)isoindoline-1,3-dione] | C (>80% tau protein remaining after 72 hours of incubation with the test compound)
6 | O=C1CCC(N2C(=O)c3ccc(OCCCCCN4CCN(CCO[C@H]5C[C@@H](Oc6ccc(-c7ccc8c(c7)[nH]c7ccncc78)cn6)C5)CC4)cc3C2=O)C(=O)N1 (stereo partly drawn) [Compound 56, 5-((5-(4-(2-((1 s,3 s)-3-((5-(5H-pyrido[4,3-b]indol-7-yl)pyridin-2-yl)oxy)cyclobutoxy)ethyl)piperazin-1-yl)pentyl)oxy)-2-(2,6-dioxopiperidin-3-yl)isoindoline-1,3-dione] | C (>80% tau protein remaining after 72 hours of incubation with the test compound)
7 | O=C1CCC(N2C(=O)c3ccc(OCCOCCOCCOCCOCCN4CCC(c5ccc6c(c5)[nH]c5ccncc56)CC4)cc3C2=O)C(=O)N1 (stereo not drawn) [Compound 57, 5-((14-(4-(5H-pyrido[4,3-b]indol-7-yl)piperidin-1-yl)-3,6,9,12-tetraoxatetradecyl)oxy)-2-(2,6-dioxopiperidin-3-yl)isoindoline-1,3-dione] | C (>80% tau protein remaining after 72 hours of incubation with the test compound)
8 | O=C1CCC(N2C(=O)c3ccc(OCCCCCOCCN4CCN(CCCc5ccc(-c6ccc7c(c6)[nH]c6ccncc67)cn5)CC4)cc3C2=O)C(=O)N1 (stereo not drawn) [Compound 58, 5-((5-(2-(4-(3-(5-(5H-pyrido[4,3-b]indol-7-yl)pyridin-2-yl)propyl)piperazin-1-yl)ethoxy)pentyl)oxy)-2-(2,6-dioxopiperidin-3-yl)isoindoline-1,3-dione] | C (>80% tau protein remaining after 72 hours of incubation with the test compound)
9 | O=C1CCC(N2C(=O)c3ccc(OCCCCCN4CCN(CCO[C@H]5C[C@H](Oc6ccc(-c7ccc8c(c7)[nH]c7ccncc78)cn6)C5)CC4)cc3C2=O)C(=O)N1 (stereo partly drawn) [Compound 59, 5-((5-(4-(2-((1r,3r)-3-((5-(5H-pyrido[4,3-b]indol-7-yl)pyridin-2-yl)oxy)cyclobutoxy)ethyl)piperazin-1-yl)pentyl)oxy)-2-(2,6-dioxopiperidin-3-yl)isoindoline-1,3-dione] | C (>80% tau protein remaining after 72 hours of incubation with the test compound)
10 | O=C1CCC(N2C(=O)c3ccc(N4CCN(CCCO[C@H]5C[C@H](Oc6ccc(-c7ccc8c(c7)[nH]c7ccncc78)cn6)C5)CC4)cc3C2=O)C(=O)N1 (stereo partly drawn) [Compound 60, 5-(4-(3-((1r,3r)-3-((5-(5H-pyrido[4,3-b]indol-7-yl)pyridin-2-yl)oxy)cyclobutoxy)propyl)piperazin-1-yl)-2-(2,6-dioxopiperidin-3-yl)isoindoline-1,3-dione] | C (>80% tau protein remaining after 72 hours of incubation with the test compound)
11 | O=C1CCC(N2C(=O)c3ccc(OCCCCCN4CCN(CCCc5ccc(-c6ccc7c8cnccc8n(CC(F)(F)F)c7c6)cn5)CC4)cc3C2=O)C(=O)N1 (stereo not drawn) [Compound 61, 2-(2,6-dioxopiperidin-3-yl)-5-((5-(4-(3-(5-(5-(2,2,2-trifluoroethyl)-5H-pyrido[4,3-b]indol-7-yl)pyridin-2-yl)propyl)piperazin-1-yl)pentyl)oxy)isoindoline-1,3-dione] | C (>80% tau protein remaining after 72 hours of incubation with the test compound)
12 | Cn1c2ccncc2c2ccc(-c3ccc(CCCN4CCN(CCCCCOc5ccc6c(c5)CN(C5CCC(=O)NC5=O)C6=O)CC4)nc3)cc21 (stereo not drawn) [Compound 62, 3-(5-((5-(4-(3-(5-(5-methyl-5H-pyrido[4,3-b]indol-7-yl)pyridin-2-yl)propyl)piperazin-1-yl)pentyl)oxy)-1-oxoisoindolin-2-yl)piperidine-2,6-dione] | C (>80% tau protein remaining after 72 hours of incubation with the test compound)
13 | Cn1c2ccncc2c2ccc(-c3cnc(CCCN4CCN(CCCCCOc5ccc6c(c5)C(=O)N(C5CCC(=O)NC5=O)C6=O)CC4)c(C(F)(F)F)c3)cc21 (stereo not drawn) [Compound 63, 2-(2,6-dioxopiperidin-3-yl)-5-((5-(4-(3-(5-(5-methyl-5H-pyrido[4,3-b]indol-7-yl)-3-(trifluoromethyl)pyridin-2-yl)propyl)piperazin-1-yl)pentyl)oxy)isoindoline-1,3-dione] | C (>80% tau protein remaining after 72 hours of incubation with the test compound)

same assay, conditions: SK-N-SH cells; 72 hours of incubation; tested at 1000 nM, 300 nM and 100 nM

Row | SMILES | Activity* (highest amount of degradation observed at any dosage, as tau protein remaining)
14 | Cc1ncsc1-c1ccc(CNC(=O)[C@@H]2C[C@@H](O)CN2C(=O)[C@@H](NC(=O)COCCOCCOCCOCC(O)COc2ccc3nc(-c4ccc(N(C)C)cc4)ccc3c2)C(C)(C)C)cc1 (stereo partly drawn) [Compound 46, (2S,4R)-1-((2S)-2-tert-butyl-18-(2-(4-(dimethylamino)phenyl)quinolin-6-yloxy)-17-hydroxy-4-oxo-6,9,12,15-tetraoxa-3-azaoctadecane)-4-hydroxy-N-(4-(4-methylthiazol-5-yl)benzyl)pyrrolidine-2-carboxamide] | C (>80% tau protein remaining after 72 hours of incubation with the test compound)
15 | CN(C)c1ccc(-c2ccc3cc(OCC(O)COCCOCCOCCNc4cccc5c4C(=O)N(C4CCC(=O)NC4=O)C5=O)ccc3n2)cc1 (stereo not drawn) [Compound 47, 4-(2-(2-(2-(3-(2-(4-(dimethylamino)phenyl)quinolin-6-yloxy)-2-hydroxypropoxy)ethoxy)ethoxy)ethylamino)-2-(2,6-dioxopiperidin-3-yl)isodoline-1,3-dione] | C (>80% tau protein remaining after 72 hours of incubation with the test compound)
16 | Cn1c2ccncc2c2ccc(-c3ccc(OCCOCCOCCOCCOCCNc4cccc5c4C(=O)N(C4CCC(=O)NC4=O)C5=O)nc3)cc21 (stereo not drawn) [Compound 48, 2-(2,6-dioxopiperidin-3-yl)-4-(14-(5-(5-methyl-5H-pyrido[4,3-b]indol-7-yl)pyridin-2-yloxy)-3,6,9,12-tetraoxatetradecylamino)isoindoline-1,3-dione] | A (≤50% tau protein remaining after 72 hours of incubation with the test compound)
17 | O=C1CCC(N2Cc3c(NCCOCCOCCOCCOCCOc4ccc(-c5ccc6c(c5)[nH]c5ccncc56)cn4)cccc3C2=O)C(=O)N1 (stereo not drawn) [Compound 49, 3-(4-((14-((5-(5H-pyrido[4,3-b]indol-7-yl)pyridin-2-yl)oxy)-3,6,9,12-tetraoxatetradecyl)amino)-1-oxoisoindolin-2-yl)piperidine-2,6-dione] | A (≤50% tau protein remaining after 72 hours of incubation with the test compound)
18 | O=C1CCC(N2Cc3c(OCCOCCOCCOCCOCCOc4ccc(-c5ccc6c(c5)[nH]c5ccncc56)cn4)cccc3C2=O)C(=O)N1 (stereo not drawn) [Compound 50, 3-(4-(14-(5-(5H-pyrido[4,3-b]indol-7-yl)pyridin-2-yloxy)-3,6,9,12-tetraoxatetradecyloxy)-1-oxoisoindolin-2-yl)piperidine-2,6-dione] | A (≤50% tau protein remaining after 72 hours of incubation with the test compound)
